Results taken from patent US20110034335A1, “Treatment of Ornamental Plants” (priority 2009, published 2011).

Tests used:
Type in all cases: in vivo
Cyclamen plants = assay: Spray with 1-MCP solutions, ethylene challenge (Example 1); details: Day 7; for Appearance: 1 = poor, 5 = excellent
Experimental: (§1) Spray applications were made using (unless otherwise noted) AFxRD-038 powder containing 3.8% active ingredient, i.e. 1-MCP, and also containing dextrose, alpha-cyclodextrin, and amino acid salt. Rates listed are for active ingredient e.g. 5 mg active ingredient per liter. Sprayed liquid contained (unless otherwise noted) AFxRD-038 powder added to water. AFxRD-038 powder was obtained from AgroFresh Inc. The water used (unless otherwise noted) was tap water. Applications were done in 500 ml spray bottles at rates typical for growth regulators applications in the ornamental industry i.e., 200 ml per square meter. Spraying was done within 5-15 minutes of mixing the formulation. Plants were allowed to dry for 1-4 hours before being challenged with ethylene (2 ppm for about 16 hours at ambient temperatures).
(§2) Visual appearance and flower or bud abscission of Impatiens (unknown cultivar in pots with diameter of 10 cm (4 inch)) and Cyclamen plants (unknown cultivar in pots of diameter 11.5 cm (4.5 inch)) sprayed with 1-MCP solutions and challenged with ethylene.

Impatiens = assay: as above; details: 0 = poor, 5 = excellent
Experimental: as §1, §2

Kalanchoe = assay: Spray with 1-MCP solutions with or without Silwet L-77, ethylene challenge (Example 2)
Experimental: as §1
(§3) Surfactant Silwet™ L-77 (called “surf” below) was sometimes included to evaluate the effect of surfactant on efficacy. Silwet™ L-77 was used in the form of a pure liquid. The amounts shown below as “ml/L” refer to milliliters of pure Silwet™ L-77 per liter of liquid CP composition.
(§4) Kalanchoe (unknown cultivar), ‘Candy Stripe’ phlox and ‘Sonnet’ snapdragon (all in pots of diameter 10 cm (4 inch)) were sprayed with 1-MCP solutions, with or without Silwet™ L-77 surfactant (specific gravity 1.007), and challenged with ethylene.
(§5) For Kanlanchoe, we observed the percent of plants on which one or more flowers died by wilting, whether or not it stayed on the plant. For Phlox and Snapdragon, we observed the percent of plants on which one or more flowers or one or more buds underwent abscission.

‘Candy Stripe’ phlox = assay: as above; details: for Bud or Flower Abscission (%): Day 5
Experimental: as §1, §3, §4, §5

‘Sonnet’ snapdragon = assay: as above; details: for Bud or Flower Abscission (%): Day 5
Experimental: as §1, §3, §4, §5

[1] = tested on: Callibrachoa “Cherry Blossom”; assay: Racks of flowering plants sprayed, truck 14 hours, ethylene challenge (Example 8); details: 25 mg/L, 200 ml/square meter, scale 0 (poor) to 2 (good)
Experimental: as §1
(§6) Racks of flowers were sprayed with spray liquid containing 25 mg/L at rate of 200 ml/square meter. Racks were then placed into a full enclosed truck (length 7.3 meter) for 14 hours. Plants were then challenged with ethylene and evaluated 3 and 7 days later, using a rating scale from 0 (poor) to 2 (good). […]

Impatiens (double pink) = assay: as above; details: 25 mg/L, 200 ml/square meter, scale 0 (poor) to 2 (good)
Experimental: as §1, §6

Impatiens (light pink) = assay: as above; details: 25 mg/L, 200 ml/square meter, scale 0 (poor) to 2 (good)
Experimental: as §1, §6

Asclepias = assay: Nursery plants sprayed, boxed and shipped, quality rating (Example 10); details: 50 mg/L of 1-MCP; after 5 days shipping; 0 (poor) to 2 (good)
Experimental: (§7) A range of nursery plants that often show quality problems during shipping were chosen including Datura (tropical), Mini-rose, Delphinium (sun perennial), Verbena (sun perennial), Asclepias (sun perennial), Delosperma (groundcover), Myosotis (shade perennial) and Primula (shade perennial).
(§8) Spray liquid had 50 mg/L of 1-MCP. Sprayed and unsprayed control plants, all of which were blooming, were packed in boxes according to standard procedures and shipped under commercial conditions. After 5 days plants were unpacked and given a quality rating, from 0 (poor) to 2 (good).

Datura (tropical) = assay: as above; details: 50 mg/L of 1-MCP; after 5 days shipping; 0 (poor) to 2 (good)
Experimental: as §7, §8

Delosperma = assay: as above; details: 50 mg/L of 1-MCP; after 5 days shipping; 0 (poor) to 2 (good)
Experimental: as §7, §8

Delphinium = assay: as above; details: 50 mg/L of 1-MCP; after 5 days shipping; 0 (poor) to 2 (good)
Experimental: as §7, §8

Mini-rose = assay: as above; details: 50 mg/L of 1-MCP; after 5 days shipping; 0 (poor) to 2 (good)
Experimental: as §7, §8

Myosotis = assay: as above; details: 50 mg/L of 1-MCP; after 5 days shipping; 0 (poor) to 2 (good)
Experimental: as §7, §8

Primula = assay: as above; details: 50 mg/L of 1-MCP; after 5 days shipping; 0 (poor) to 2 (good)
Experimental: as §7, §8

Verbena = assay: as above; details: 50 mg/L of 1-MCP; after 5 days shipping; 0 (poor) to 2 (good)
Experimental: as §7, §8

nursery plants = assay: Nursery plants, reassessment after 4 weeks in greenhouse (Example 10); details: 50 mg/L of 1-MCP; after 4 weeks in a greenhouse
Experimental: as §7
as §8, with “(good). Results were as follows:” for “(good).”
After the above observations, the plants were placed in a greenhouse for 4 weeks and assessed again.

For `CC1=CC1` [1-MCP, 1-methylcyclopropene], the “Abscission (%)” value (Cyclamen plants; 1-MCP 10 mg/L) was 25.6%, the Appearance (Cyclamen plants; 1-MCP 10 mg/L) was 3.7 and the “Abscission (%)” value (Cyclamen plants; 1-MCP 15 mg/L) was 23.3%. The Appearance (Cyclamen plants; 1-MCP 15 mg/L) was 3.7, the “Abscission (%)” value (Cyclamen plants; 1-MCP 25 mg/L) was 25.0% and the Appearance (Cyclamen plants; 1-MCP 25 mg/L) was 3.7. For the same compound, the Appearance (Impatiens; 1-MCP 10 mg/L, Day 1) was 3.7, the Appearance (Impatiens; 1-MCP 10 mg/L, Day 4) was 3.3 and the Appearance (Impatiens; 1-MCP 100 mg/L, Day 1) was 4.3. It also gave an Appearance (Impatiens; 1-MCP 100 mg/L, Day 4) of 3.7, an Appearance (Impatiens; 1-MCP 300 mg/L, Day 1) of 2.3 and an Appearance (Impatiens; 1-MCP 300 mg/L, Day 4) of 1.3. For the same compound, the protection against ethylene (Kalanchoe; 1-MCP 5 mg/L) was “sufficient in giving protection against ethylene”, the “Flower Wilting (%)” value (Kalanchoe; 1-MCP 5 mg/L, surf 0 ml/L, Day 5) was 7.9% and the “Flower Wilting (%)” value (Kalanchoe; 1-MCP 5 mg/L, surf 0 ml/L, Day 15) was 11.9%. For the same compound, the “Flower Wilting (%)” value (Kalanchoe; 1-MCP 5 mg/L, surf 0.25 ml/L, Day 5) was 7.3%, the “Flower Wilting (%)” value (Kalanchoe; 1-MCP 5 mg/L, surf 0.25 ml/L, Day 15) was 8.7% and the “Flower Wilting (%)” value (Kalanchoe; 1-MCP 10 mg/L, surf 0 ml/L, Day 5) was 5.6%. For the same compound, the “Flower Wilting (%)” value (Kalanchoe; 1-MCP 10 mg/L, surf 0 ml/L, Day 15) was 6.7%, the “Flower Wilting (%)” value (Kalanchoe; 1-MCP 10 mg/L, surf 0.25 ml/L, Day 5) was 5.5% and the “Flower Wilting (%)” value (Kalanchoe; 1-MCP 10 mg/L, surf 0.25 ml/L, Day 15) was 6.8%. For the same compound, the “Flower Wilting (%)” value (Kalanchoe; 1-MCP 25 mg/L, surf 0 ml/L, Day 5) was 4.6%, the “Flower Wilting (%)” value (Kalanchoe; 1-MCP 25 mg/L, surf 0 ml/L, Day 15) was 7.2% and the “Flower Wilting (%)” value (Kalanchoe; 1-MCP 25 mg/L, surf 0.25 ml/L, Day 5) was 6.2%. For the same compound, the “Flower Wilting (%)” value (Kalanchoe; 1-MCP 25 mg/L, surf 0.25 ml/L, Day 15) was 7.4%, the phytotoxicity (Kalanchoe; 1-MCP 50 mg/L) was “did not result in any phytotoxicity” and the “Flower Wilting (%)” value (Kalanchoe; 1-MCP 50 mg/L, surf 0 ml/L, Day 5) was 6.7%. For the same compound, the “Flower Wilting (%)” value (Kalanchoe; 1-MCP 50 mg/L, surf 0 ml/L, Day 15) was 7.5%, the “Flower Wilting (%)” value (Kalanchoe; 1-MCP 50 mg/L, surf 0.25 ml/L, Day 5) was 5.7% and the “Flower Wilting (%)” value (Kalanchoe; 1-MCP 50 mg/L, surf 0.25 ml/L, Day 15) was 6.7%. For the same compound, the protection against ethylene (‘Candy Stripe’ phlox; 1-MCP 5 mg/L) was “sufficient in giving protection against ethylene”, the “Bud or Flower Abscission (%)” value (‘Candy Stripe’ phlox; 1-MCP 5 mg/L, surf 0 ml/L) was 21.4% and the “Bud or Flower Abscission (%)” value (‘Candy Stripe’ phlox; 1-MCP 5 mg/L, surf 0.25 ml/L) was 26.0%. For the same compound, the “Bud or Flower Abscission (%)” value (‘Candy Stripe’ phlox; 1-MCP 10 mg/L, surf 0 ml/L) was 17.3%, the “Bud or Flower Abscission (%)” value (‘Candy Stripe’ phlox; 1-MCP 10 mg/L, surf 0.25 ml/L) was 22.8% and the “Bud or Flower Abscission (%)” value (‘Candy Stripe’ phlox; 1-MCP 25 mg/L, surf 0 ml/L) was 15.8%. The “Bud or Flower Abscission (%)” value (‘Candy Stripe’ phlox; 1-MCP 25 mg/L, surf 0.25 ml/L) was 21.2%, the “Bud or Flower Abscission (%)” value (‘Candy Stripe’ phlox; 1-MCP 50 mg/L, surf 0 ml/L) was 44.1% and the “Bud or Flower Abscission (%)” value (‘Candy Stripe’ phlox; 1-MCP 50 mg/L, surf 0.25 ml/L) was 40.0%. For the same compound, the “phytotoxicity to the open florets” value (‘Candy Stripe’ phlox; the highest rates of 1-MCP) was “caused phytotoxicity to the open florets”, the protection against ethylene (‘Sonnet’ snapdragon; 1-MCP 5 mg/L) was “sufficient in giving protection against ethylene” and the “Bud or Flower Abscission (%)” value (‘Sonnet’ snapdragon; 1-MCP 5 mg/L, surf 0 ml/L) was 19.9%. The “Bud or Flower Abscission (%)” value (‘Sonnet’ snapdragon; 1-MCP 5 mg/L, surf 0.25 ml/L) was 0.0%, the “Bud or Flower Abscission (%)” value (‘Sonnet’ snapdragon; 1-MCP 10 mg/L, surf 0 ml/L) was 4.4% and the “Bud or Flower Abscission (%)” value (‘Sonnet’ snapdragon; 1-MCP 10 mg/L, surf 0.25 ml/L) was 3.3%. The “Bud or Flower Abscission (%)” value (‘Sonnet’ snapdragon; 1-MCP 25 mg/L, surf 0 ml/L) was 7.4%, the “Bud or Flower Abscission (%)” value (‘Sonnet’ snapdragon; 1-MCP 25 mg/L, surf 0.25 ml/L) was 3.3% and the phytotoxicity on flowers (‘Sonnet’ snapdragon; 1-MCP 50 mg/L) was “did not result in any phytotoxicity”. The “Bud or Flower Abscission (%)” value (‘Sonnet’ snapdragon; 1-MCP 50 mg/L, surf 0 ml/L) was 6.4%, the “Bud or Flower Abscission (%)” value (‘Sonnet’ snapdragon; 1-MCP 50 mg/L, surf 0.25 ml/L) was 8.9% and the “phytotoxicity to the open florets” value (‘Sonnet’ snapdragon; the highest rates of 1-MCP) was “caused phytotoxicity to the open florets”. The “rating, Sprayed” value ([1]; Day 3) was 1.00 a, the “rating, Sprayed” value ([1]; Day 7) was 1.00 a and the “rating, Sprayed” value (Impatiens (double pink); Day 3) was 1.00 a. For the same compound, the “rating, Sprayed” value (Impatiens (double pink); Day 7) was 0.58 a, the “rating, Sprayed” value (Impatiens (light pink); Day 3) was 1.00 a and the “rating, Sprayed” value (Impatiens (light pink); Day 7) was 1.00 a. For the same compound, the “Quality Rating, Sprayed” value (Asclepias) was 1.5, the “Quality Rating, Sprayed” value (Datura (tropical)) was 2.0 and the “Quality Rating, Sprayed” value (Delosperma) was 1.3. For the same compound, the “Quality Rating, Sprayed” value (Delphinium) was 1.0, the “Quality Rating, Sprayed” value (Mini-rose) was 1.8 and the “Quality Rating, Sprayed” value (Myosotis) was 0.5. The “Quality Rating, Sprayed” value (Primula) was 1.0, the “Quality Rating, Sprayed” value (Verbena) was 0.5 and the “assessment of sprayed plants vs control” value (nursery plants) was “typically larger, greener, and healthier”.
